Data reported in patent publication US20080113042A1, “PHARMACEUTICAL COMPOSITION AND METHOD FOR CANCER TREATMENT BASED ON COMBINATIONAL USE OF CONVENTIONAL ANTICANCER AGENTS AND GERANIUM OIL OR COMPOUNDS THEREOF” (priority 2006, published 2008).
≈ marks a conversion by molar mass, not a printed value.

Columns and labels:
[1] = test system: SK-OV-3; assay: In vitro cytotoxicity, MTT assay; type: cell-based; conditions: Homo sapiens, SK-OV-3 (ovary), 48 hours
[2] = test system: A-549; assay: In vitro cytotoxicity, MTT assay; type: cell-based; conditions: Homo sapiens, A549, A-549 (lung), 48 hours
[3] = test system: MDA-MB-231; assay: In vitro cytotoxicity, MTT assay; type: cell-based; conditions: Homo sapiens, MDA-MB-231 (breast), 48 hours
[4] = test system: NCI-H1437; assay: In vitro cytotoxicity, MTT assay; type: cell-based; conditions: Homo sapiens, NCI-H1437 (lung), 48 hours
[5] = test system: MCF-7; assay: In vitro cytotoxicity, MTT assay; type: cell-based; conditions: Homo sapiens, MCF7, MCF-7 (breast), 48 hours
[6] = test system: NCI-H838; assay: In vitro cytotoxicity, MTT assay; type: cell-based; conditions: Homo sapiens, NCI-H838 (lung), 48 hours
[7] = test system: subcutaneously implanted solid tumors induced by MDA-MB-231 cells; assay: In vivo antitumor efficacy test, breast tumor-bearing nude mice; conditions: MDA-MB-231 tumors in nude mice, intraperitoneally twice a week for 28 days; paclitaxel 5 mg/kg alone or paclitaxel 0.2 mg/kg + geraniol 45 mg/kg; p<0.001
Method: The antitumor efficacy of composition comprising paclitaxel and geraniol against the subcutaneously implanted solid tumors induced by MDA-MB-231 cells in nude mice was evaluated. Treatments were initiated when the tumors inoculated in nude mice reached a tumor volume of 50-100 mm^3, and this day was designated as Day 1. Mice were divided into 3 different groups consisting of five mice in each group, and administered intraperitoneally with normal saline (control), paclitaxel (5 mg/kg) in normal saline, or composition comprising paclitaxel (0.2 mg/kg) and geraniol (45 mg/kg) twice a week for 28 days. The size of tumor and change of body weight of each mouse were recorded.
The anticancer efficacy of the paclitaxel-geraniol composition was studied in breast tumor-bearing nude mice. […] In the control, mice were injected with normal saline. In Paclitaxel, mice were injected with paclitaxel (5 mg/kg) in normal saline. In the Paclitaxel-geraniol composition, mice were injected with composition comprising paclitaxel (0.2 mg/kg) and geraniol in normal saline.

| Compound | IC50 [1] | IC50 [2] | IC50 [3] | IC50 [4] | IC50 [5] | IC50 [6] | tumor growth (size of tumor) versus control group [7] |
| --- | --- | --- | --- | --- | --- | --- | --- |
| O=c1[nH]cc(F)c(=O)[nH]1 [Composition 5-FU, Fluorouracil] | 66.6 µg/mL (≈ 512 µM) | 5.9 µg/mL (≈ 45.4 µM) | 328 µg/mL (≈ 2520 µM) | > 100 µg/mL | 38.7 µg/mL (≈ 298 µM) | 12.1 µg/mL (≈ 93 µM) |  |
| CC(=O)O[C@H]1C(=O)[C@@]2(C)[C@H]([C@H](OC(=O)c3ccccc3)[C@]3(O)C[C@H](OC(=O)[C@H](O)[C@@H](NC(=O)c4ccccc4)c4ccccc4)C(C)=C1C3(C)C)[C@]1(OC(C)=O)CO[C@@H]1C[C@@H]2O [Paclitaxel, paclitaxel] | 56.5 µg/mL (≈ 66.2 µM) | 20.1 µg/mL (≈ 23.5 µM) | 31.9 µg/mL (≈ 37.4 µM) | 36.8 µg/mL (≈ 43.1 µM) | 46 µg/mL (≈ 53.9 µM) | 30.9 µg/mL (≈ 36.2 µM) | significantly suppressed the tumor growth in a similar manner |
